Source: patent US20180319810A1, “SUBSTITUTED BRIDGED UREA ANALOGS AS SIRTUIN MODULATORS” (GlaxoSmithKline Intellectual Property (No.2) Limited, priority 2014, published 2018)

Molecular target: T1, SIRT1 (Homo sapiens, UniProt Q96EB6)
T1 sequence (Q96EB6 1-747): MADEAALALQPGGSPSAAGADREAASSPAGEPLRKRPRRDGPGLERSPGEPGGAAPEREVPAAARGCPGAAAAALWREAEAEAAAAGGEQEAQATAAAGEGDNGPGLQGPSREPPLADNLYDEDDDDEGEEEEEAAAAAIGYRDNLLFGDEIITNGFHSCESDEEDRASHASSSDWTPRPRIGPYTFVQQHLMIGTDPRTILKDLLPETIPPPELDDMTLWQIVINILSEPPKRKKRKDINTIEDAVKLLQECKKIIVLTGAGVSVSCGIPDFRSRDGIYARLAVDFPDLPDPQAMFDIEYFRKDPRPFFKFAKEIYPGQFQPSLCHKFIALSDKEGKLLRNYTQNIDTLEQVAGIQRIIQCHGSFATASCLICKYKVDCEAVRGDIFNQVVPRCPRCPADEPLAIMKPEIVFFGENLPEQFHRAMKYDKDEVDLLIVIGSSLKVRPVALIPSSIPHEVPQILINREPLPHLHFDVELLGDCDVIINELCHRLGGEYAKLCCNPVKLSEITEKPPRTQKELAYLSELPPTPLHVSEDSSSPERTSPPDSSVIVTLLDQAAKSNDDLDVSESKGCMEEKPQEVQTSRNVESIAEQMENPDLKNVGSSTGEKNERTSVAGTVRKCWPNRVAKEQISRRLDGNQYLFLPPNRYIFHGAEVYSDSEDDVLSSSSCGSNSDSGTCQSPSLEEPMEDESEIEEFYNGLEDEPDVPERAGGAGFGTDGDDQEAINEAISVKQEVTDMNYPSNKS
Experiment: Trp mass spectrometry assay of SIRT1 activation
Assay type: biochemical
Details: Trp peptide Ac-R-H-K-K(Ac)-W-NH2 0.5 μM, 120 μM βNAD+, 10 nM SIRT1, 25 min, 25° C.

Compound	TRP Activity (EC1.5, concentration of compound required to increase SIRT1 activity by 50% over control)	TRP MAX RESP (percent maximum fold activation relative to control)
O=C(Nc1ccnc(OC[C@@H](O)CO)c1)N1c2nc(-c3cccc(C(F)(F)F)c3)ncc2N2CCC[C@H]1C2 [Example 85, (9S)—N-(2-((S)-2,3-dihydroxypropoxy)pyridin-4-yl)-2-(3-(trifluoromethyl)phenyl)-8,9-dihydro-6H-5,9-methanopyrimido[4,5-b][1,4]diazocine-10(7H)-carboxamide]	A (EC1.5<1 μM)	A (Fold activation ≥150%)
CC(C)NC(=O)N1c2nc(-c3cccc(C(F)(F)F)c3)ncc2N2CC[C@H]1C2 [Example 30, (8S)—N-isopropyl-2-(3-(trifluoromethyl)phenyl)-7,8-dihydro-5,8-methanopyrimido[4,5-b][1,4]diazepine-9(6H)-carboxamide]	B (EC1.5 1-25 μM)	A (Fold activation ≥150%)
O=C(Nc1nccc(OC[C@H](O)CO)n1)N1c2nc(-c3cccc(C(F)(F)F)c3)ncc2N2CC[C@H]1C2 [Example 26, (8S)—N-(4-((R)-2,3-dihydroxypropoxy)pyrimidin-2-yl)-2-(3-(trifluoromethyl)phenyl)-7,8-dihydro-5,8-methanopyrimido[4,5-b][1,4]diazepine-9(6H)-carboxamide]	B (EC1.5 1-25 μM)	A (Fold activation ≥150%)
Cc1nc(-c2cccc(C(F)(F)F)c2)nc2c1N1CCC[C@@H](C1)N2C(=O)Nc1cncc(OC[C@H](O)CO)c1 [Example 107, (9S)—N-(5-((R)-2,3-dihydroxypropoxy)pyridin-3-yl)-4-methyl-2-(3-(trifluoromethyl)phenyl)-8,9-dihydro-6H-5,9-methanopyrimido[4,5-b][1,4]diazocine-10(7H)-carboxamide]	A (EC1.5<1 μM)	A (Fold activation ≥150%)
O=C(NC1CC1)c1ncc2c(n1)N(C(=O)Nc1ccccn1)[C@H]1CCCN2C1 [Example 116, (9S)—N2-cyclopropyl-N10-(pyridin-2-yl)-8,9-dihydro-6H-5,9-methanopyrimido[4,5-b][1,4]diazocine-2,10(7H)-dicarboxamide]	C (EC1.5>25 μM)	A (Fold activation ≥150%)
Cc1ncc(-c2ccnc(NC(=O)N3c4nc(C(=O)N[C@H](C)C(F)(F)F)ncc4N4CCC[C@H]3C4)c2)o1 [Example 70, (9S)—N10-(4-(2-methyloxazol-5-yl)pyridin-2-yl)-N2-((R)-1,1,1-trifluoropropan-2-yl)-8,9-dihydro-6H-5,9-methanopyrimido[4,5-b][1,4]diazocine-2,10(7H)-dicarboxamide]	A (EC1.5<1 μM)	A (Fold activation ≥150%)
O=C(Nc1ccc(OC[C@H](O)CO)cn1)N1c2nc(-c3cccc(C(F)(F)F)c3)ncc2N2CC[C@H]1C2 [Example 40, (8S)—N-(5-((R)-2,3-dihydroxypropoxy)pyridin-2-yl)-2-(3-(trifluoromethyl)phenyl)-7,8-dihydro-5,8-methanopyrimido[4,5-b][1,4]diazepine-9(6H)-carboxamide]	A (EC1.5<1 μM)	A (Fold activation ≥150%)
O=C(Nc1nccc(OC[C@H](O)CO)n1)N1c2nc(-c3cccc(C(F)(F)F)c3)ncc2N2CCC[C@H]1C2 [Example 100, (9S)—N-(4-((R)-2,3-dihydroxypropoxy)pyrimidin-2-yl)-2-(3-(trifluoromethyl)phenyl)-8,9-dihydro-6H-5,9-methanopyrimido[4,5-b][1,4]diazocine-10(7H)-carboxamide]	A (EC1.5<1 μM)	A (Fold activation ≥150%)
C[C@@H](NC(=O)c1ncc2c(n1)N(C(=O)Nc1cccc(OC[C@@H](O)CO)n1)[C@H]1CCCN2C1)C(F)(F)F [Example 117, (9S)—N10-(6-((S)-2,3-dihydroxypropoxy)pyridin-2-yl)-N2-((R)-1,1,1-trifluoropropan-2-yl)-8,9-dihydro-6H-5,9-methanopyrimido[4,5-b][1,4]diazocine-2,10(7H)-dicarboxamide]	B (EC1.5 1-25 μM)	A (Fold activation ≥150%)
Cc1nc(-c2cccc(C(F)(F)F)c2)nc2c1N1CC[C@@H](C1)N2C(=O)Nc1ccnc(OC[C@@H](O)CO)c1 [Example 57, (8S)—N-(2-((S)-2,3-dihydroxypropoxy)pyridin-4-yl)-4-methyl-2-(3-(trifluoromethyl)phenyl)-7,8-dihydro-5,8-methanopyrimido[4,5-b][1,4]diazepine-9(6H)-carboxamide]	B (EC1.5 1-25 μM)	A (Fold activation ≥150%)
Cc1ccc2c(NC(=O)N3c4nc(C(=O)NC(CO)C(F)(F)F)ncc4N4CCC[C@H]3C4)n[nH]c2n1 (single isomer, unassigned) [Example 66]	A (EC1.5<1 μM)	A (Fold activation ≥150%)
Cc1cc(-c2ncc3c(n2)N(C(=O)Nc2cccnc2)[C@H]2CCN3C2)ccn1 [Example 6, (8S)-2-(2-methylpyridin-4-yl)-N-(pyridin-3-yl)-7,8-dihydro-5,8-methano pyrimido[4,5-b][1,4]diazepine-9(6H)-carboxamide]	B (EC1.5 1-25 μM)	A (Fold activation ≥150%)
Cc1nc(C(=O)N[C@H](C)C(F)(F)F)nc2c1N1CCC[C@@H](C1)N2C(=O)Nc1cc(OC[C@H](O)CO)ccn1 [Example 67, (9S)—N10-(4-((R)-2,3-dihydroxypropoxy)pyridin-2-yl)-4-methyl-N2-((R)-1,1,1-trifluoropropan-2-yl)-8,9-dihydro-6H-5,9-methanopyrimido[4,5-b][1,4]diazocine-2,10(7H)-dicarboxamide]	A (EC1.5<1 μM)	A (Fold activation ≥150%)
O=C(Nc1cnc(OC[C@H](O)CO)nc1)N1c2nc(-c3cccc(C(F)(F)F)c3)ncc2N2CC[C@H]1C2 [Example 49, (8S)—N-(2-((R)-2,3-dihydroxypropoxy)pyrimidin-5-yl)-2-(3-(trifluoromethyl)phenyl)-7,8-dihydro-5,8-methanopyrimido[4,5-b][1,4]diazepine-9(6H)-carboxamide]	B (EC1.5 1-25 μM)	A (Fold activation ≥150%)
O=C(Nc1cnc(OC[C@H](O)CO)cn1)N1c2nc(-c3cccc(C(F)(F)F)c3)ncc2N2CCC[C@H]1C2 [Example 97, (9S)—N-(5-((R)-2,3-dihydroxypropoxy)pyrazin-2-yl)-2-(3-(trifluoromethyl)phenyl)-8,9-dihydro-6H-5,9-methanopyrimido[4,5-b][1,4]diazocine-10(7H)-carboxamide]	A (EC1.5<1 μM)	A (Fold activation ≥150%)
O=C(Nc1ccc(OC[C@@H](O)CO)cn1)N1c2nc(-c3cccc(C(F)(F)F)c3)ncc2N2CC[C@H]1C2 [Example 42, (8S)—N-(5-((S)-2,3-dihydroxypropoxy)pyridin-2-yl)-2-(3-(trifluoromethyl)phenyl)-7,8-dihydro-5,8-methanopyrimido[4,5-b][1,4]diazepine-9(6H)-carboxamide]	B (EC1.5 1-25 μM)	A (Fold activation ≥150%)
C[C@@H](NC(=O)c1ncc2c(n1)N(C(=O)Nc1cc(OC[C@H](O)CO)ncn1)[C@H]1CCCN2C1)C(F)(F)F [Example 77, (9S)—N10-(6-((R)-2,3-dihydroxypropoxy)pyrimidin-4-yl)-N2-((R)-1,1,1-trifluoropropan-2-yl)-8,9-dihydro-6H-5,9-methanopyrimido[4,5-b][1,4]diazocine-2,10(7H)-dicarboxamide]	B (EC1.5 1-25 μM)	A (Fold activation ≥150%)
O=C(Nc1cnnc(OC[C@H](O)CO)c1)N1c2nc(-c3cccc(C(F)(F)F)c3)ncc2N2CC[C@H]1C2 [Example 44, (8S)—N-(6-((R)-2,3-dihydroxypropoxy)pyridazin-4-yl)-2-(3-(trifluoromethyl)phenyl)-7,8-dihydro-5,8-methanopyrimido[4,5-b][1,4]diazepine-9(6H)-carboxamide]	B (EC1.5 1-25 μM)	A (Fold activation ≥150%)
